{
  "source": "patent US11542473B2",
  "about": "“Methods and compositions for generating hematopoietic cells” (priority 2016, dated 2023)",
  "key": {"[1]": {"test_system": "hPSC-derived hematopoietic cells (iPSC line RB9-CB1)", "assay": "hPSC-to-hematopoietic differentiation, flow cytometry of HSC-like surface phenotype (Example 2)", "type": "cell-based, human", "settings": "for HSC-like phenotype: specificity controls for cAMP, day 14; for concentration required to increase HSC-like phenotype as compared to Forskolin: day 14, representative experiment; for frequency of HSC-like cells after inhibition / hematopoietic cell generation efficiency / blood emergence (CD43): inhibition on day 10 and day 12, analysis day 14", "protocol": "Human iPSC line RB9-CB1 derived from cord blood endothelial cells was cultured on irradiated mouse embryonic fibroblasts (MEFs) in Dulbecco's Modified Eagle Medium:Nutrient Mixture F-12 (DMEM/F12) supplemented with 20% KnockOut-serum replacement (KOSR), 2 mM L-glutamine, 0.1 mM non-essential amino acids, 0.1 mM 2-mercaptoethanol and 10 ng/ml basic fibroblast growth factor, all from Thermo Fischer Scientific Inc. (Waltham, Mass., USA). The cells were incubated in a humidified incubator at […] and 5% CO2.\n(§1) Embryoid bodies (EBs) were prepared after incubating the pluripotent stem cell colonies with 2 mg/ml Dispase (Thermo Fischer Scientific Inc.), followed by gentle pipetting. The detached colonies were washed twice with 20% KOSR containing DMEM/F12, before plating in ultra low-adherence suspension culture dishes (Corning Inc., Corning, N.Y., USA) to form EBs for 8 days. During suspension culture, MesoTotal™ HPC/HSC Differentiation System (Primorigen Biosciences, Madison, Wis., USA) was used to specify the EBs towards mesoderm commitment. At day 8, EBs were plated on 0.08 μg/mm2 Matrigel™ (BD Biosciences, Franklin Lakes, N.J., USA) and further differentiation towards hematopoietic cells was carried out till day 14 in MesoTotal medium.\n(§2) Application of fresh medium and treatment with 10 μM Forskolin (Stemgent, Cambridge, Mass., USA), 500 μM IBMX (3-isobutyl-1-methylxanthine, Santa Cruz Biotechnology, Dallas, Tex., USA) was carried out at day 10 and day 12 of differentiation. To inhibit PKA and Epac, 50 μM PKA inhibitor (Rp-8-CPT-cAMPS) and 20 μM Epac inhibitor (ESI-09) (both from BIOLOG Life Science Institute, Bremen, Germany) were used (20 min pretreatment followed by cAMP induction) on day 10 and day 12 of differentiation and the cells were analyzed on day 14. To analyze hemogenic endothelium, PKA and Epac were inhibited on day 6 and day 8 and the cells were analyzed on day 10. The distance between center of an EB and outer edge of its cellular spread was analyzed using ImageJ (developed at the National Institutes of Health, USA). Colony Formation Assay"}, "[2]": {"test_system": "differentiating human ES/iPS cells", "assay": "hPS-to-blood differentiation, FACS analysis of hematopoietic subsets (Example 1)", "type": "cell-based"}, "[3]": {"test_system": "adherent endothelial-like cells of plated EBs", "assay": "Radial spreading of adherent endothelial-like cells from embryoid bodies (ImageJ)", "type": "cell-based, human", "settings": "in the absence or presence of Forskolin+IBMX", "protocol": "as §1, with “At day 8, EBs were plated on 0.08 μg/mm2 Matrigel™ (BD Biosciences, Franklin Lakes, N.J., USA) and further differentiation towards hematopoietic cells was carried out till day 14 in MesoTotal medium.” left out\nas §2, with “Colony Formation Assay” left out"}, "[4]": {"test_system": "CXCR4 in hPSC-derived hematopoietic cells", "assay": "CXCR4 surface expression by flow cytometry", "type": "cell-based, human", "settings": "with or without cAMP induction, compared to the control", "protocol": "as §2"}, "[5]": {"test_system": "hemogenic endothelium phenotype cells (CD43-CD34+CXCR4-CD73-Vecad+)", "assay": "Hemogenic endothelium phenotype by flow cytometry", "type": "cell-based, human", "settings": "inhibition on day 6 and day 8, analysis day 10; in the absence or presence of Forskolin+IBMX", "protocol": "as §2"}, "[6]": {"test_system": "hPSC-derived hematopoietic cells", "assay": "ROS detection with CellROX Deep Red by flow cytometry", "type": "cell-based, human", "settings": "day 14; versus control", "protocol": "as §2"}, "[7]": {"test_system": "hematopoietic cells derived from human ES/iPS cells", "assay": "Colony forming unit assay in methylcellulose (Example 1)", "type": "cell-based", "protocol": "CFU potential of hematopoietic cells after the 14 day differentiation assay was assessed by plating 2×10^4 cells in Methocult […] (Stem Cell Technologies) supplemented with human SCF (25 ng/ml), GM-CSF (50 ng/ml), IL3 (25 ng/ml) and Erythropoietin (5 U/ml). Cells were incubated in a humidified incubator at 37° C., 5% CO2 for 14 days and colonies were quantified by bright-field microscopy."}, "human cord blood": {"test_system": "human cord blood", "settings": "PGE2-mediated cAMP activation; cited from earlier work"}, "HSC egress from the BM": {"test_system": "HSC egress from the BM", "settings": "administration to mice; cited from earlier work"}, "[8]": {"settings": "NE treatment (10 μM, 300 μM) at day 10 and 12, analysis day 14"}},
  "data": [
    {"compound": "C=C[C@@]1(C)CC(=O)[C@@H]2[C@@]3(C)CCCC(C)(C)[C@@H]3[C@H](O)[C@H](OC(C)=O)[C@@]2(C)O1", "note": "[1,9-dideoxy Forskolin, 1,9-Dideoxyforskolin]", "values": [
      {"measurement": "HSC-like phenotype", "setting": "[1]", "value": "cannot induce"}
    ]},
    {"compound": "Nc1ncnc2c1nc(Br)n2[C@@H]1O[C@@H]2COP(=O)(O)O[C@H]2[C@H]1O", "note": "[8-Br-cAMP, 8-bromo-adenosine-3′,5′-cyclic monophosphate]", "values": [
      {"measurement": "concentration required to increase HSC-like phenotype as compared to Forskolin", "setting": "[1]", "value": 10, "unit": "fold"},
      {"measurement": "HSC-like phenotype", "setting": "[1]", "value": "upregulated"}
    ]},
    {"compound": "Cc1ccc(OCC(O)C(C)NC(C)C)c2c1CCC2", "note": "(stereo not shown) [ADRB2 antagonist, ICI118,551]", "values": [
      {"measurement": "mediation of the norepinephrine effect through ADRB2", "setting": "[2]; addition of specific ADRB2 antagonist (ICI118,551 at 20 μM) to NE-treated cultures", "value": "unlikely to be mediated through this receptor"}
    ]},
    {"compound": "CC(C)(C)c1cc(C(=O)C(C#N)=NNc2cccc(Cl)c2)no1", "note": "[Epac inhibitor]", "values": [
      {"measurement": "frequency of HSC-like cells after inhibition", "setting": "[1]", "value": "decreased"},
      {"measurement": "hematopoietic cell generation efficiency / blood emergence (CD43)", "setting": "[1]", "value": "reduced"},
      {"measurement": "radial spreading of adherent endothelial-like cells", "setting": "[3]", "value": "reduced"},
      {"measurement": "CXCR4 expression after Epac inhibition", "setting": "[4]", "value": "reduced"},
      {"measurement": "hemogenic endothelial fraction", "setting": "[5]", "value": "decreased"}
    ]},
    {"compound": "CC(C)Cn1c(=O)n(C)c(=O)c2[nH]cnc21", "note": "[IBMX, 3-isobutyl-1-methylxanthine]", "values": [
      {"measurement": "ROS levels in various hematopoietic phenotypes, including the HSC-like cells", "setting": "[6]", "value": "significantly lowered"}
    ]},
    {"compound": "NC[C@H](O)c1ccc(O)c(O)c1", "note": "[NE, Norepinephrine]", "values": [
      {"measurement": "HSC-like phenotype in total viable cells", "setting": "[2]; 300 μM (NE300) at day 10 and day 12, analysis at day 14", "value": "significantly increased"},
      {"measurement": "frequency of CD34high CD90high endothelial precursors", "setting": "[2]; NE added at 300 μM", "value": "trend for an increase"},
      {"measurement": "blood fraction (CD43/45+ in total viable)", "setting": "[2]; [8]", "value": "unchanged"},
      {"measurement": "progenitor fraction (CD34+ in CD43/45+ blood)", "setting": "[2]; [8]", "value": "unchanged"},
      {"measurement": "HSC-like cells in the CD43/45+ blood population", "setting": "[2]; NE treatment at day 10 and 12, analysis day 14", "value": "specifically and significantly upregulated"},
      {"measurement": "colony formation (CFU frequency) in methylcellulose", "setting": "[7]; hematopoietic cells generated with 300 μM (NE300)", "value": "significant increase"},
      {"measurement": "distribution of colony types", "setting": "[7]; hematopoietic cells generated with NE", "value": "not affected"}
    ]},
    {"compound": "Nc1ncnc2c1nc(Sc1ccc(Cl)cc1)n2[C@@H]1O[C@@H]2COP(O)(=S)O[C@H]2[C@H]1O", "note": "(stereo partly shown) [PKA inhibitor, Rp-8-CPT-cAMPS]", "values": [
      {"measurement": "frequency of HSC-like cells after inhibition", "setting": "[1]", "value": "no negative effect"},
      {"measurement": "hematopoietic cell generation efficiency / blood emergence (CD43)", "setting": "[1]", "value": "no negative effect"},
      {"measurement": "radial spreading of adherent endothelial-like cells", "setting": "[3]", "value": "did not have any effect"},
      {"measurement": "hemogenic endothelial fraction", "setting": "[5]", "value": "no negative effect"}
    ]},
    {"compound": "CCCCC[C@H](O)/C=C/[C@H]1[C@H](O)CC(=O)[C@@H]1C/C=C\\CCCC(=O)O", "note": "[Prostaglandin E2 (PGE2), Prostaglandin E2]", "values": [
      {"measurement": "human cord blood engraftment", "setting": "human cord blood", "value": "enhances"}
    ]},
    {"compound": "CCCC(=O)Nc1ncnc2c1ncn2[C@@H]1O[C@@H]2COP(=O)(O)O[C@H]2[C@H]1OC(=O)CCC", "note": "[dibutyryl-cAMP, N6,O2-dibutyrl-adenosine-3′,5′-cyclic monophosphate]", "values": [
      {"measurement": "concentration required to increase HSC-like phenotype as compared to Forskolin", "setting": "[1]", "value": 10, "unit": "fold"},
      {"measurement": "HSC-like phenotype", "setting": "[1]", "value": "upregulated"}
    ]},
    {"compound": "CNC[C@H](O)c1ccc(O)c(O)c1", "note": "[epinephrine]", "values": [
      {"measurement": "HSC egress from the BM", "setting": "HSC egress from the BM", "value": "increased"}
    ]}
  ]
}
